For the test, the target named is T1, PfCNB-C (residues 275–428) (Plasmodium falciparum, UniProt Q8I719).
T1 construct: 275–428 for CNB-C; His-tag (pQTEV, TEV site) (N, cleaved yes); made in house; host or cells: E. coli TP2000 (delta-cya)
The test is described as follows: FP binding measurements, isolated PfCNB-C domain. The source says: A manually designed construct consisting of PfPKG amino acids 1–853 with codons optimized for expression in E.coli was synthesized at Life Technologies. All PfPKG constructs were ligated into the His-tagged bacterial expression vector, pQTEV [28]. In designing the expression constructs of each CNB, we used the sequence of the cGMP selective CNB-B that we recently reported. The domain boundaries for the individual constructs are: residues 1–173 for CNB-A, 158–294 for CNB-B, 275–428 for CNB-C and 401–542 for CNB-D. All PfPKG proteins were expressed in TP2000 E. coli. The cells were grown at 37 °C to an OD600nm of 0.6, then induced with 0.5 mM IPTG, and grown for an additional 10 hours at 25 °C. Cells were harvested by centrifugation, then resuspended in 50 mM potassium phosphate (pH 7.5), 500 mM NaCl and 1 mM β-mercaptoethanol, and lysed using a cell disruptor (Constant Systems).
The direct fluorescence polarization (FP) assay was performed following the procedure from Moll et al. Measurements were performed in 150 mM NaCl, 20 mM MOPS plus 0.005% (w/v) CHAPS pH 7.0 using the Fusion a-FP microtiter plate reader at room temperature in a 384 well microtiterplate (Perkin Elmer, Optiplate, black). The protein concentration was varied while the concentration of 8-Fluo-cAMP/8-Fluo-cGMP (Biolog Life Science Institute (Bremen, Germany)) was fixed at 1–5 nM. […] The KD values were calculated from sigmoidal dose-response curves.
For competition FP experiments, the protein concentration and the concentration of 8-Fluo-cGMP were fixed to give a polarization signal that was 50% of the maximum value obtained from direct FP measurements. […] FP signals were detected as indicated above. Data were analyzed with GraphPad Prism 5.03 by plotting the polarization signal in mPol against the logarithm of the cyclic nucleotide concentration. The EC50 values were calculated from sigmoidal dose-response curves.

Structures are written as SMILES.

T1 sequence (Q8I719 275-428): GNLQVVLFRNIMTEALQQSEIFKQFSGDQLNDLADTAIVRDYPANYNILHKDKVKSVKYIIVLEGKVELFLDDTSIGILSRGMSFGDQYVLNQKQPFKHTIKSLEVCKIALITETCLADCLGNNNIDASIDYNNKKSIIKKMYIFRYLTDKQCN

As to `Nc1nc2c(nc(SCCNC(=S)Nc3ccc4c(c3)C(=O)OC43c4ccc(O)cc4Oc4cc(O)ccc43)n2[C@@H]2O[C@@H]3COP(=O)(O)O[C@H]3[C@H]2O)c(=O)[nH]1` [8-Fluo-cGMP], the “affinity of PfCNB-C for the fluorescent nucleotide” value was “very weak affinity”.

Turning to `Nc1ncnc2c1nc(SCCNC(=S)Nc1ccc(-c3c4ccc(=O)cc-4oc4cc(O)ccc34)c(C(=O)O)c1)n2C1OC2COP(=O)(O)OC2C1O` (centres unmarked) [8-Fluo-cAMP], the “affinity of PfCNB-C for the fluorescent nucleotide” value was “very weak affinity”.

The record behind these values is paper PMC4412288, “Crystal Structures of the Carboxyl cGMP Binding Domain of the Plasmodium falciparum cGMP-dependent Protein Kinase Reveal a Novel Capping Triad Crucial for Merozoite Egress” (PLoS Pathogens, 2015).
